Source: patent US20090318491A1 (priority 2006, published 2009)
Read-outs that look alike come from different tables or passages of the source.

Legend:
hα4β2 = target: T1, hα4β2 (Homo sapiens, UniProt P17787+P43681); conditions: HEK293 cells; cited from earlier work
T1 construct: expressed in transfected cells; host or cells: HEK293 cells

C57BL/6J male mice [1] = type: in vivo
Text: Subjects were 12-week old male C57BL/6J mice (The Jackson Laboratory, Bar Harbor Me.). Subjects were housed 5 per cage under standardized conditions (12:12 light cycle with lights on at 7:00 am) and were allowed at least 7 days of rest before testing. Food and water were available ad libitum.
Placebo cage-mate controls received an injection of saline.
The tail suspension test took place between 2:00 pm and 5:00 pm. […] Immediately after injection, each animal was placed in a clean cage and transferred to the testing room.
Approximately 1 cm from the end, each mouse's tail was taped (Scotch 35 Vinyl Electrical Tape) to a paperclip. Mice were suspended by the tail approximately 80 cm above the floor and the duration of immobility, defined as the absence of all movement except for those required for respiration, was recorded by an observer for 6 minutes. The animals were then returned to the holding room.

C57BL/6J male mice [2] = conditions: acute i.p. injection of cytisine, FIG. 1
Method: C57BL/6J male mice, 34 months of age were used in these experiments. […] At 15 minutes, the mice were subject to a forced swim test (FST) and a recorded of immobility (time and patters) was provided. Control behavior was provided by testing locomotor activity at 20 minutes in an open field.

C57BL/6J male mice [3] = conditions: cytisine + 5HT1A/7 agonist 8OHDPAT
c-fos = conditions: brain regions, FIG. 2
α4β2* nAChR = target: T2, α4β2* nAChR (Rattus norvegicus, UniProt P09483+P12390); test: biochemical; type: binding
T2 construct: Frozen rat brains were thawed slowly before the preparation of the P2 rat brain membrane fraction; from tissue; host or cells: rat brain (without cerebellum and medulla), P2 membrane fraction
T2 sequence (P12390 25-500): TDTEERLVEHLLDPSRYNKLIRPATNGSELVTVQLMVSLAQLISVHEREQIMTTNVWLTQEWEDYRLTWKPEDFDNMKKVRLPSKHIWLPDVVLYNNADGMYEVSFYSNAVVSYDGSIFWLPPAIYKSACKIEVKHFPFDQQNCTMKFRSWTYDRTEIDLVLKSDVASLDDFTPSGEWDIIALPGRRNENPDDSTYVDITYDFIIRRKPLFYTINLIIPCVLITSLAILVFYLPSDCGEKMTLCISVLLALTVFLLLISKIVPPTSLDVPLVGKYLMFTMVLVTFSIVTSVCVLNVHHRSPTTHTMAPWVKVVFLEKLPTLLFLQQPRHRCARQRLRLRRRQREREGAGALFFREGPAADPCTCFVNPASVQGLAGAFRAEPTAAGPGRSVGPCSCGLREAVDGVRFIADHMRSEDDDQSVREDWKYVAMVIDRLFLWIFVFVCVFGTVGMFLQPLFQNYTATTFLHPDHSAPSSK
T2 sequence (P09483 31-630): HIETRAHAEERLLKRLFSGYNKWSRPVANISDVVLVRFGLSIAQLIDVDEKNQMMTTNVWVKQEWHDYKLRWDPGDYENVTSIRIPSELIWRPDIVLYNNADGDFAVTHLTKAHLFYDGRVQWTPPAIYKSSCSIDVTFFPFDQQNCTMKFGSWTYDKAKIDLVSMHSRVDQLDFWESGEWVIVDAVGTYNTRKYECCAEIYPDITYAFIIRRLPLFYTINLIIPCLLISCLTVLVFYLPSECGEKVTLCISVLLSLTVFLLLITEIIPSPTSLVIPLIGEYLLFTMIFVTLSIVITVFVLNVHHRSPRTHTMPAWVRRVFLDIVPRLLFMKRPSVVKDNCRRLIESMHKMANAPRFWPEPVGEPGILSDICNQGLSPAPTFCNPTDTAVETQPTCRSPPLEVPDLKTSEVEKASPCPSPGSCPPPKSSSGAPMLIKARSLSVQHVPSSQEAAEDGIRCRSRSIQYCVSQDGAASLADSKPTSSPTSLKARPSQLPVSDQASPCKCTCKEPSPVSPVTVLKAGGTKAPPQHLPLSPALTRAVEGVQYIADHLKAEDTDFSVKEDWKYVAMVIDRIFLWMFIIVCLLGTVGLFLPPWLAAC
Method: Preparation of Rat Brains
Frozen rat brains were thawed slowly before the preparation of the P2 rat brain membrane fraction (30-60 min on ice, afterwards at room temperature). […] After the determination of the wet weight (1.32 g on average), the brains were pressed into a pulp using a syringe and homogenised in saccharose buffer with a glass teflon homogenizator (Potter, 10 seconds). The tissue was then centrifuged (1,000×g, 20 min, 4° C.), the supernatant (S1) aspirated with a Pasteur pipette and stored on ice. The P1 pellet was re-suspended in saccharose buffer and the centrifugation was repeated. The supernatant S1′ was collected and added to the supernatant S1. The combined supernatants were centrifuged (25,000×g, 20 min, 4° C.), the supernatant S2 was removed and the pellet P2 collected and diluted with HSS-buffer. The buffer volume added was calculated on the basis of the wet weight in a ratio 1:2.
The final pellet was stored in aliquots at −80° C. On the day of the experiment, the P2 membrane fraction was thawed, diluted with HSS-buffer (30-fold volume), homogenised and centrifuged (35,000×g, 10 min, 4° C.). The collected pellet was suspended in HSS-buffer and used in the radioligand binding experiments.
Competition Assay Using (±)-[^3H]Epibatidine ([^3H]Epi) and Rat Brain P2-Fraction (α4β2*nAChR)
(§1) A dilution row of 6-9 concentrations of the test compound was prepared. Each assay sample, with a total volume of 500 μL contained 100 μL of the membrane protein (60 μg), 100 μL of (±)-[^3H]epibatidine (0.5 nM), 100 μL of HSS-buffer and 200 μL of the test compound Non-specific binding was determined in the presence of 300 μM (−)-nicotine tartrate salt. The samples were homogenised and incubated for 90 min at 22° C. The incubation was terminated by vacuum filtration through glass fibre filters pre-soaked in 1% poly(ethyleneimine). The filter were rinsed three times with TRIS-buffer, punched out and transferred into 4 mL scintillation vials. The scintillation vials were filled with scintillation cocktail (2 mL) and the radioactivity was measured using a liquid scintillation counter.
Assays were carried out in duplicate, triplicates or quadruplicates.
(§2) Biological evaluation of the compounds on various nicotinic actylcholine receptors (nAChRs) was conducted with cells described below. […] Functional agonist activity of the cytisines in cells using a fluorescence assay sensitive to changes in cytosolic calcium.

(α1)2β1γδ nAChR = target: T3, (α1)2β1γδ nAChR (Tetronarce californica, UniProt P02710+P02714+P02718); test: biochemical; type: binding, Torpedo californica
T3 construct: 100 μL of the Torpedo californica electroplax fraction (60-70 μg); from tissue; host or cells: Torpedo californica electric organ (electroplax) membranes
T3 sequence (P02710 25-461): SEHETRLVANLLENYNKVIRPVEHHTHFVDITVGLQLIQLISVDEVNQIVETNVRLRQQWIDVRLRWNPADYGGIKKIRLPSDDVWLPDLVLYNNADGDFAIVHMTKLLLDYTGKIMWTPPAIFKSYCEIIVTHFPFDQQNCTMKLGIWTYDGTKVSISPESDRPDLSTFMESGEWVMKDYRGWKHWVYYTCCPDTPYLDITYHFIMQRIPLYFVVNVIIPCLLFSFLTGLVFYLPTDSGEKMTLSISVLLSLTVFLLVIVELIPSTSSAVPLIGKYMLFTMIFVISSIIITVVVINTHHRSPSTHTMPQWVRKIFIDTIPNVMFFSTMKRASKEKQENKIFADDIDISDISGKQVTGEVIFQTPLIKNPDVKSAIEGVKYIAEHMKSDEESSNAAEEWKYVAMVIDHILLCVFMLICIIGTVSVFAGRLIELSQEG
T3 sequence (P02712 25-493, further chain): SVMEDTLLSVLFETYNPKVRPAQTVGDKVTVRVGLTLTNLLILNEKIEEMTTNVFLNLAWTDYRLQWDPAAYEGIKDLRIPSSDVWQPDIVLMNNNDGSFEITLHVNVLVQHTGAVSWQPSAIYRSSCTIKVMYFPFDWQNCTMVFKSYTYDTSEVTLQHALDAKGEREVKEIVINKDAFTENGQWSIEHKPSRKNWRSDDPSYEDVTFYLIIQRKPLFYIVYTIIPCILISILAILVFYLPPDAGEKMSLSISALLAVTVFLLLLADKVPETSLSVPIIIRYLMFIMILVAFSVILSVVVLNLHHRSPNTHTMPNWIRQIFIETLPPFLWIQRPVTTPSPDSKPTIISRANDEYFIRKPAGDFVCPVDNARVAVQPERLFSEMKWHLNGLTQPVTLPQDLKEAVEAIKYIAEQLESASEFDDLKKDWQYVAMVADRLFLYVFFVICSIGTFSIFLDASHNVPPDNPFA
T3 sequence (P02718 22-522): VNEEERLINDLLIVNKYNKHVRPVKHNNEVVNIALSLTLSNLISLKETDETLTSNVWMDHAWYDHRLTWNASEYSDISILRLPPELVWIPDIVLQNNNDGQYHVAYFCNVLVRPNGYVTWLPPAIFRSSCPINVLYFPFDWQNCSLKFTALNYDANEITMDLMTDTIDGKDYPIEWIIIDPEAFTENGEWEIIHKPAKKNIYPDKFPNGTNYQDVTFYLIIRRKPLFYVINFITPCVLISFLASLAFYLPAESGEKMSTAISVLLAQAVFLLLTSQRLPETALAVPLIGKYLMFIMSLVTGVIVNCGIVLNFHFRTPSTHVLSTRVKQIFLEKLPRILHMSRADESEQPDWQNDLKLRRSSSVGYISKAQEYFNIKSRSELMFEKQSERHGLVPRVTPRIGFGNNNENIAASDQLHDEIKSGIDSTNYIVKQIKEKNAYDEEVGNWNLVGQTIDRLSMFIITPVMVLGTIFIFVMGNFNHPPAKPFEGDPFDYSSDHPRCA
T3 sequence (P02714 18-506): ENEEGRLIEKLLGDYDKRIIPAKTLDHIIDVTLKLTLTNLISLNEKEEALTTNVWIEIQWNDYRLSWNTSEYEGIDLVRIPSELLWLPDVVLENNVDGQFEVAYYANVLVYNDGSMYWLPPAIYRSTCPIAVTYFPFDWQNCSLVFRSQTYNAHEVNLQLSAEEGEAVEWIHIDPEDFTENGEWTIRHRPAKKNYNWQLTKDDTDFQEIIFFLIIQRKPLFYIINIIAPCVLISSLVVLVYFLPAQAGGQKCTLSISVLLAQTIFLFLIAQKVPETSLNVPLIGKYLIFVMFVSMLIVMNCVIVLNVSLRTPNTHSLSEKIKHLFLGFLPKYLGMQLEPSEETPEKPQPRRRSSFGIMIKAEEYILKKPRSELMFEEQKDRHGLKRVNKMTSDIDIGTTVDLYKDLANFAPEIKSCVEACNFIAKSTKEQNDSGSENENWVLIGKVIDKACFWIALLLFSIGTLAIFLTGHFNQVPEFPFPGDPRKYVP
Method: Preparation of Torpedo californica Electroplax
Frozen samples of Torpedo californica electric organ (−80° C.) were placed on ice for 30-60 min and allowed to thaw slowly before the membrane preparation. The tissue was homogenised in an ice-cold HSS-buffer (Ultraturrax at 750 rpm) and centrifuged (30,000×g, 10 min, 4° C.). The pellets were collected, washed four times with HSS-buffer through re-homogenization and centrifugation at the same settings. The remaining pellets were collected, re-suspended in HSS and stored in aliquots at −80° C.
One hour before the experiments the tissues were slowly thawed, homogenised in HSS-buffer and centrifuged (25,000×g, 20 min, 4° C.). The pellets were re-suspended in fresh HSS-buffer and used for radioligand binding assays.
Competition Assay Using (±)-[^3H]Epibatidine ([^3H]Epi) and Torpedo californica Electroplax ((α1)2β1γδ nAChR)
as §1, with “μL contained 200 μL” for “μL contained 100 μL of the membrane protein (60 μg), 100 μL of (±)-[^3H]epibatidine (0.5 nM), 100 μL of HSS-buffer and 200 μL”, “the test compound, 100 μL of (±)-[^3H]epibatidine and 100 μL of the Torpedo californica electroplax fraction (60-70 μg). Non-specific binding” for “the test compound Non-specific binding”, “poly(ethyleneimine). The filters were rinsed” for “poly(ethyleneimine). The filter were rinsed”
Assays were carried out in duplicates, triplicate or quadruplicates.
as §2

α3β4* nAChR = target: T4, α3β4* nAChR (Bos taurus, UniProt Q07263+Q8SPU6); test: biochemical; type: binding, calf
T4 construct: 100 μL of the calf adrenal membrane protein fraction (60-70 μg); from tissue; host or cells: calf adrenals, membrane fraction
T4 sequence (Q07263 22-495): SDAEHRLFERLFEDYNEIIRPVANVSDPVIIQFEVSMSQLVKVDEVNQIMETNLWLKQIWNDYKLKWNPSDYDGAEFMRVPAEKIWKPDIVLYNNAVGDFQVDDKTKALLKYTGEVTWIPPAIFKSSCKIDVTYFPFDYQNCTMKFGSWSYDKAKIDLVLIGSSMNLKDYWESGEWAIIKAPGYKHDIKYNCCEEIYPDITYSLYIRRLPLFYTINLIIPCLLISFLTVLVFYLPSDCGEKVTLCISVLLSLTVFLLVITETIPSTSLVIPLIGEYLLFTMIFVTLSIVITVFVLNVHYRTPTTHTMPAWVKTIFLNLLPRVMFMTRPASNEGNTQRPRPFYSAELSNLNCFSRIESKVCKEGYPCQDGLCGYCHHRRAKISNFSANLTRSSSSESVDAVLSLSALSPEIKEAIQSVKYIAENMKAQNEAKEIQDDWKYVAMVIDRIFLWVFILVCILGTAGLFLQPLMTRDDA
T4 sequence (Q8SPU6 20-496): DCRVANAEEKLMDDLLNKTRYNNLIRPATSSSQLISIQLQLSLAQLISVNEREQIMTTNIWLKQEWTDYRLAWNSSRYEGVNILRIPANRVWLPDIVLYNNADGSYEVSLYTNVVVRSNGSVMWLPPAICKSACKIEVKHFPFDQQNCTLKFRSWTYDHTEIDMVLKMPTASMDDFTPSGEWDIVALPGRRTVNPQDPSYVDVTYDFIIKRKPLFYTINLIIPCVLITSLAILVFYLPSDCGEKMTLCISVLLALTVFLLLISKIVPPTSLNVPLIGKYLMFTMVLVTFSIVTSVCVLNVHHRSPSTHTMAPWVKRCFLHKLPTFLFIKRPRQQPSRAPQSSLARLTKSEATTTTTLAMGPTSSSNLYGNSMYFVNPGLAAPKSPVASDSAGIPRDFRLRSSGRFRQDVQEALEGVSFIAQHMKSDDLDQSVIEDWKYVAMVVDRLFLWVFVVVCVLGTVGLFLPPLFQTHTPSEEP
Method: Preparation of Calf Adrenals
Frozen calf adrenals (−80° C.) were placed on ice for 30-60 min and allowed to thaw slowly before they were cut into small pieces. After determination of the wet weight (4-6 g), the tissue was homogenised in HSS-buffer (Ultraturrax at 750 rpm). The homogenate was centrifuged (30,000×g, 10 min, 4° C.), the pellets collected and washed. This procedure was repeated five times. The buffer volume used to re-suspend the pellets was calculated on the basis of the wet weight in a ratio 1:6.5.
The prepared tissues were stored in aliquots at −80° C. One hour before the experiments the tissues were slowly thawed, homogenised in HSS-buffer and centrifuged (25,000×g, 20 min, 4° C.). The pellets were re-suspended in fresh HSS-buffer and used for radioligand binding assays.
Competition Assay Using (±)-[^3H]Epibatidine ([^3H]Epi) and Calf Adrenals Membrane Fraction (α3β4*nAChR)
Each assay sample, with a total volume of 500 μL contained 200 μL of the test compound, 100 μL of (±)-[^3H]epibatidine, 100 μL of the calf adrenal membrane protein fraction (60-70 μg) and 100 μM of HSS-buffer. Non-specific binding was determined in the presence of 300 μM (−)-nicotine tartrate salt. The samples were homogenised and incubated for 90 min at 22° C. The incubation was terminated by vacuum filtration through glass fibre filters presoaked in 1% poly(ethyleneimine). The filters were rinsed three times with TRIS-buffer, punched out and transferred into 4 mL scintillation vials. The scintillation vials were filled with scintillation cocktail (2 mL) and the radioactivity was measured using a liquid scintillation counter.
Assays were carried out in duplicates, triplicates or quadruplicates

C57BL/6J male mice [4] = conditions: 21 days i.p. treatment, 24 hour food deprivation, FIG. 1
Method: A novelty-suppressed feeding test (NSFT) was conducted consisting of a 24 hour food deprivation, and a recording of the time to initiate a first feeding episode in an open-field, with controls for appetite and motivation (measure of weight loss and food intake).

T1 sequence (P43681 29-627 limits assumed): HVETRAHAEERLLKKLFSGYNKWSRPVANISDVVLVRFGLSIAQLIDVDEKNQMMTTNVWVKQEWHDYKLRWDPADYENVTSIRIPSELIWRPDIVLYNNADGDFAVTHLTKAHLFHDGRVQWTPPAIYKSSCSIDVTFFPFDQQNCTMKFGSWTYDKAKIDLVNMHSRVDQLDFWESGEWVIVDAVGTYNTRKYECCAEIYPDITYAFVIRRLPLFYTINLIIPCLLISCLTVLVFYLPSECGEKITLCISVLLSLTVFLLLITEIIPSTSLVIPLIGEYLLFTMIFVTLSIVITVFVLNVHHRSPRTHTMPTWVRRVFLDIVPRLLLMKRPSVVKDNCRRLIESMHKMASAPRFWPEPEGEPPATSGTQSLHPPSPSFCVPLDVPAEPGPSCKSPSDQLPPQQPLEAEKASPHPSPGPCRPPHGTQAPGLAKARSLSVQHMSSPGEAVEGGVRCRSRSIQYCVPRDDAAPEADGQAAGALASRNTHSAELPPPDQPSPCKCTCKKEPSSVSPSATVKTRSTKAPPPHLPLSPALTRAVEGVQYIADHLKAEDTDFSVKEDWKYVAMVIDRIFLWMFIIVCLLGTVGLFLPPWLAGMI
T1 sequence (P17787 26-502): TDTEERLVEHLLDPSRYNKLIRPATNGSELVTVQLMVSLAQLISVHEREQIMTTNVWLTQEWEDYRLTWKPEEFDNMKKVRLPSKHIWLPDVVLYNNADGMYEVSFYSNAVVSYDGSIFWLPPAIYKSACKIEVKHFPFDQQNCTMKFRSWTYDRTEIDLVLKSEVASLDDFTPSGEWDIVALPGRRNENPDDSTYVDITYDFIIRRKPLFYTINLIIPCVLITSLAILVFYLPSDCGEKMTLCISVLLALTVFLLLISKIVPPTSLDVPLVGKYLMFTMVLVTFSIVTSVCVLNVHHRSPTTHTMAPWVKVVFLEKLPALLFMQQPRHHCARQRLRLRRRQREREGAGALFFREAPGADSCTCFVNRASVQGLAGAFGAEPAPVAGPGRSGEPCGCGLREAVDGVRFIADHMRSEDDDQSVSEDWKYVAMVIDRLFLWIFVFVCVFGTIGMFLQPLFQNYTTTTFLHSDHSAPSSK

c1ccc(-c2ccc3c(c2)CC2CNCC3C2)cc1 (stereo not drawn) [57j]
Ki (hα4β2): 500 nM

Nc1cccc(-c2ccc3c(c2)CC2CNCC3C2)c1 (stereo not drawn) [57m]
Ki (hα4β2): 500 nM

O=c1c(-c2cccnc2)ccc2n1CC1CNCC2C1 (stereo not drawn) [compound 1]
mean duration of immobility in tail suspension test (C57BL/6J male mice [1]; acute i.p., […] (1.5 mg/kg elsewhere in the source), 45 minutes after injection, vs saline, p=0.014, FIG. 3): significantly less mobile

O=c1cccc2n1C[C@@H]1CNC[C@H]2C1 [compound 27, 1,2,3,4,5,6-hexahydro-1,5-methano-pyrido[1,2-a][1,5]diazocin-8-one]
immobility in forced swim test (C57BL/6J male mice [2]): generalized antidepressant-like profile
potentiation of cytisine effects (C57BL/6J male mice [3]): potentiation
neuronal activity (c-fos immunostaining) (c-fos): Reductions of neuronal activity in the amygdala, hypothalamus and in the nucleus accumbens
Ki (α4β2* nAChR): 0.122 nM
Ki ((α1)2β1γδ nAChR): 1300 nM
Ki (α3β4* nAChR): 19 nM
time to initiate first feeding episode in novelty-suppressed feeding test (C57BL/6J male mice [4]): generalized antidepressant-like profile
immobility in tail suspension test (C57BL/6J male mice [1]; acute i.p. injection of cytisine, FIG. 1): generalized antidepressant-like profile
immobility in tail suspension test (C57BL/6J male mice [1]; cytisine, doses lower than 1 mg/kg): did not yield any significant effects
